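Following 48 hours of exposure in 96-well plates, responses at five concentrations were used to interpolate endpoints linearly. The concentration for full growth arrest is given as TGI.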
Experiments:
Assay in all cases: NCI anticancer screen, dose series, 48 h
[1] = system: 786-0 renal
[2] = system: A498 renal
[3] = system: A549 NSCLC
[4] = system: ACHN renal
[5] = system: BT-549 breast
[6] = system: CAKI-1 renal
[7] = system: CCRF-CEM leukemia
[8] = system: COLO 205 colon
[9] = system: DLD-1 colon
[10] = system: DMS 114 small cell lung
[11] = system: DMS 273 small cell lung
[12] = system: DU-145 prostate
[13] = system: EKVX NSCLC
[14] = system: HCC-2998 colon
[15] = system: HCT-116 colon
[16] = system: HCT-15 colon
[17] = system: HL-60(TB) leukemia
[18] = system: HOP-18 NSCLC
[19] = system: HOP-62 NSCLC
[20] = system: HOP-92 NSCLC
[21] = system: HS 578T breast
[22] = system: HT29 colon
[23] = system: IGROV1 ovarian
[24] = system: K-562 leukemia
[25] = system: KM12 colon
[26] = system: KM20L2 colon
[27] = system: LOX IMVI melanoma
[28] = system: LXFL 529 NSCLC
[29] = system: M14 melanoma
[30] = system: M19-MEL melanoma
[31] = system: MALME-3M melanoma
[32] = system: MCF7 breast
[33] = system: MDA-MB-231 breast
[34] = system: MDA-MB-435
[35] = system: MDA-N
[36] = system: MOLT-4 leukemia
[37] = system: NCI-H226 lung
[38] = system: NCI-H23 lung
[39] = system: NCI-H460 lung
[40] = system: NCI-H522 lung
[41] = system: NCI/ADR-RES ovarian
[42] = system: OVCAR-3 ovarian
[43] = system: OVCAR-4 ovarian
[44] = system: OVCAR-5 ovarian
[45] = system: OVCAR-8 ovarian
[46] = system: PC-3 prostate
[47] = system: RPMI-8226 leukemia
[48] = system: RXF 393 renal
[49] = system: RXF-631 renal
[50] = system: SF-268 CNS
[51] = system: SF-295 CNS
[52] = system: SF-539 CNS
[53] = system: SK-MEL-2 melanoma
[54] = system: SK-MEL-28 melanoma
[55] = system: SK-MEL-5 melanoma
[56] = system: SK-OV-3 ovarian
[57] = system: SN12C renal
[58] = system: SNB-19 CNS
[59] = system: SNB-75 CNS
[60] = system: SNB-78 CNS
[61] = system: SR leukemia
[62] = system: SW-620 colon
[63] = system: T-47D breast
[64] = system: TK-10 renal
[65] = system: U251 CNS
[66] = system: UACC-257 melanoma
[67] = system: UACC-62 melanoma
[68] = system: UO-31 renal
[69] = system: XF 498 CNS

Measured: TGI

Cc1ccc(NC(=O)CCc2nnc3s/c(=C\C=C\c4ccccc4)c(=O)n23)cc1
> 56.2 µM: [43]
> 31.6 µM: [63]
79.8 µM: [36]
> 87.2 µM: [42]
74.3 µM: [7]
> 78.6 µM: [41]
65.6 µM: [61]
> 82.1 µM: [47]
> 91.9 µM: [53]
> 79.7 µM: [17]
> 86.8 µM: [27]
77.4 µM: [45]
> 100 µM: all other assays above

Source: PubChem BioAssay (NCI)
